Test results taken from patent US4141986A, “Antibiotics 890A2 and 890A5” (Merck & Co., Inc., priority 1977, dated 1979).

Tests used:
Type in all cases: cell-based
Bacillus sp. MB-633 = assay: In vitro antibacterial spectrum profile, agar diffusion; conditions: read-out: Inhib. Zone Diam.
Experimental: (§1) The test to determine the antibiotic spectrum profile of antibiotic 890A2 is carried out by saturating 1/4 inch diameter paper discs in a solution of antibiotic 890A2 in 5% methanol at a concentration of 5 μg./ml.; air drying the saturated paper discs and placing them on the surface of 100 × 15 mm. petri plates containing 5 ml. of seeded nutrient agar plus 0.2% yeast extract.
(§2) The test to determine the antibiotic spectrum profile of antibiotic 890A5 is carried out by application of a 0.015 ml. droplet of a 33 μg./ml. aqueous solution of the antibiotic on the surface of a 100 × 15 mm. petri plate containing 5 ml. of seeded nutrient agar plus 0.2% yeast extract.

Proteus vulgaris MB-1012 = assay: as above; conditions: read-out: Inhib. Zone Diam.
[1] = system: Pseudomonas aeruginosa MB-979; assay: as above; conditions: read-out: Inhib. Zone Diam.
[2] = system: Serratia marcesens ATCC 990; assay: as above; conditions: read-out: Inhib. Zone Diam.
[3] = system: Bacillus subtilis ATCC 6633; assay: as above
Sarcina lutea ATCC 9341 = assay: as above; conditions: Micrococcus luteus, ATCC9341, read-out: Inhib. Zone Diam.
[4] = system: Staphylococcus aureus MB-698; assay: as above; conditions: read-out: Inhib. Zone Diam.
[5] = system: Streptococcus faecalis MB-753; assay: as above; conditions: Enterococcus faecalis, MB753, read-out: Inhib. Zone Diam.
[6] = system: Salmonella gallinarum MB-1287; assay: as above; conditions: Salmonella enterica, read-out: Inhib. Zone Diam.
[7] = system: Vibrio percolans ATCC 8461; assay: as above; conditions: Comamonas terrigena, ATCC8461, read-out: Inhib. Zone Diam.
[8] = system: Xanthomonas vesicatoria MB-815; assay: as above; conditions: read-out: Inhib. Zone Diam.
[9] = system: Proteus vulgaris ATCC 21100; assay: as above; conditions: read-out: Inhib. Zone Diam.
Escherichia coli MB-1418 = assay: as above; conditions: read-out: Inhib. Zone Diam.
[10] = system: Pseudomonas stutzeri ATCC 11607; assay: as above; conditions: Stutzerimonas stutzeri, ATCC11607, read-out: Inhib. Zone Diam.
[11] = system: Klebsiella pneumoniae MB-1264; assay: as above; conditions: read-out: Inhib. Zone Diam.
[12] = system: Aerobacter aerogenes MB-835; assay: as above; conditions: Klebsiella aerogenes, MB835, read-out: Inhib. Zone Diam.
[13] = system: Erwinia atroseptica ATCC 4466; assay: as above; conditions: Pectobacterium atrosepticum, ATCC4466, read-out: Inhib. Zone Diam.
[14] = system: Pseudomonas aeruginosa MB-2824; assay: as above; conditions: read-out: Inhib. Zone Diam.
[15] = system: Corynebacterium pseudodiph. ATCC 9742; assay: as above; conditions: read-out: Inhib. Zone Diam.
[16] = system: Escherichia coli ATCC 9637; assay: as above; conditions: read-out: Inhib. Zone Diam.
[17] = system: Streptoccocus faecium MB-2820; assay: as above; conditions: read-out: Inhib. Zone Diam.
[18] = system: Streptococcus agalactiae MB-2875; assay: as above; conditions: read-out: Inhib. Zone Diam.
[19] = system: Vibrio percolans resistant to ceph. C) MB-2566; assay: as above; conditions: Comamonas terrigena, read-out: Inhib. Zone Diam.
[20] = system: Proteus vulgaris (episome) MB-2112; assay: as above; conditions: read-out: Inhib. Zone Diam.
Experimental: as §1, §2
^a this episome confers resistance to tetracycline, chloramphenicol,
kanamycin and streptomycin at a concentration of 20 μg./ml. and
neomycin at a concentration of 25 μg./ml. and sulfa drugs.

[21] = system: Proteus mirabilis MB-3126; assay: as above; conditions: read-out: Inhib. Zone Diam.
[22] = system: Staphylococcus aureus (res. methicillin) MB-2949; assay: as above; conditions: read-out: Inhib. Zone Diam.
[23] = system: Vibrio percolans + Aerobacter Lactamase MB-1272; assay: In vitro antibacterial spectrum profile, agar diffusion, with Aerobacter lactamase; conditions: Comamonas terrigena, read-out: Inhib. Zone Diam.
[24] = 890A2 5 μg./ml., 1/4 inch paper disc
[25] = 890A5 33 μg./ml., 0.015 ml. droplet

CC(=O)NC=CSC1=C(C(=O)O)N2C(=O)C(C(C)O)C2C1 (stereo not drawn) [Antibiotic 890A2]
zone of inhibition at 5 µg/mL (Bacillus sp. MB-633; SP.MB633, 890A2 5 μg./ml., 1/4 inch paper disc): 40 mm
zone of inhibition at 5 µg/mL (Proteus vulgaris MB-1012; MB1012, 890A2 5 μg./ml., 1/4 inch paper disc): 11 mm
zone of inhibition at 5 µg/mL ([1]; MB979, 890A2 5 μg./ml., 1/4 inch paper disc): 0 mm
zone of inhibition at 5 µg/mL ([2]; ATCC990, 890A2 5 μg./ml., 1/4 inch paper disc): 23 mm
zone of inhibition at 5 µg/mL ([3]; ATCC6633, 890A2 5 μg./ml., 1/4 inch paper disc, read-out: Inhib. Zone Diam.): 42 mm
zone of inhibition at 5 µg/mL (Sarcina lutea ATCC 9341; [24]): 42 mm
zone of inhibition at 5 µg/mL ([4]; MB698, 890A2 5 μg./ml., 1/4 inch paper disc): 30 mm
zone of inhibition at 5 µg/mL [5, 24]: 12 mm
zone of inhibition at 5 µg/mL [6, 24]: 33 mm
zone of inhibition at 5 µg/mL [7, 24]: 31 mm
zone of inhibition at 5 µg/mL ([8]; MB815, 890A2 5 μg./ml., 1/4 inch paper disc): 29 mm
zone of inhibition at 5 µg/mL ([9]; ATCC21100, 890A2 5 μg./ml., 1/4 inch paper disc): 30 mm
zone of inhibition at 5 µg/mL (Escherichia coli MB-1418; MB1418, 890A2 5 μg./ml., 1/4 inch paper disc): 32 mm
zone of inhibition at 5 µg/mL [10, 24]: 19 mm
zone of inhibition at 5 µg/mL ([11]; MB1264, 890A2 5 μg./ml., 1/4 inch paper disc): 31 mm
zone of inhibition at 5 µg/mL [12, 24]: 27 mm
zone of inhibition at 5 µg/mL [13, 24]: 26 mm
zone of inhibition at 5 µg/mL ([14]; MB2824, 890A2 5 μg./ml., 1/4 inch paper disc): 13 mm
zone of inhibition at 5 µg/mL ([15]; ATCC9742, 890A2 5 μg./ml., 1/4 inch paper disc): 35 mm
zone of inhibition at 5 µg/mL ([16]; ATCC9637, 890A2 5 μg./ml., 1/4 inch paper disc): 29 mm
zone of inhibition at 5 µg/mL [17, 24]: 22 mm
zone of inhibition at 5 µg/mL ([18]; MB2875, 890A2 5 μg./ml., 1/4 inch paper disc): 32 mm
zone of inhibition at 5 µg/mL [19]: 11 mm
zone of inhibition at 5 µg/mL [20, 24]: 33 mm
zone of inhibition at 5 µg/mL ([21]; MB3126, 890A2 5 μg./ml., 1/4 inch paper disc): 22 mm
zone of inhibition at 5 µg/mL [22, 24]: 11 mm
zone of inhibition at 5 µg/mL [23]: 31 mm

CC(=O)NC=CSC1=C(C(=O)O)N2C(=O)C(C(C)O)C2C1 (stereo not drawn) [Antibiotic 890A5]
zone of inhibition at 33 µg/mL (Bacillus sp. MB-633; SP.MB633, 890A5 33 μg./ml., 0.015 ml. droplet): 18 mm
zone of inhibition at 33 µg/mL (Proteus vulgaris MB-1012; MB1012, 890A5 33 μg./ml., 0.015 ml. droplet): 23 mm
zone of inhibition at 33 µg/mL ([1]; MB979, 890A5 33 μg./ml., 0.015 ml. droplet): 0 mm
zone of inhibition at 33 µg/mL ([2]; ATCC990, 890A5 33 μg./ml., 0.015 ml. droplet): 29 mm
zone of inhibition at 33 µg/mL ([3]; ATCC6633, read-out: Inhib. Zone Diam.): 27 mm
zone of inhibition at 33 µg/mL (Sarcina lutea ATCC 9341; [25]): 40 mm
zone of inhibition at 33 µg/mL ([4]; MB698, 890A5 33 μg./ml., 0.015 ml. droplet): 35 mm
zone of inhibition at 33 µg/mL [5, 25]: 0 mm
zone of inhibition at 33 µg/mL [6, 25]: 26 mm
zone of inhibition at 33 µg/mL [7, 25]: 32 mm
zone of inhibition at 33 µg/mL ([8]; MB815, 890A5 33 μg./ml., 0.015 ml. droplet): 20 mm
zone of inhibition at 33 µg/mL ([9]; ATCC21100, 890A5 33 μg./ml., 0.015 ml. droplet): 27 mm
zone of inhibition at 33 µg/mL (Escherichia coli MB-1418; MB1418, 890A5 33 μg./ml., 0.015 ml. droplet): 27 mm
zone of inhibition at 33 µg/mL [10, 25]: 14 mm
zone of inhibition at 33 µg/mL ([11]; MB1264, 890A5 33 μg./ml., 0.015 ml. droplet): 27 mm
zone of inhibition at 33 µg/mL [12, 25]: 24 mm
zone of inhibition at 33 µg/mL [13, 25]: 21 mm
zone of inhibition at 33 µg/mL ([14]; MB2824, 890A5 33 μg./ml., 0.015 ml. droplet): 0 mm
zone of inhibition at 33 µg/mL ([15]; ATCC9742, 890A5 33 μg./ml., 0.015 ml. droplet): 33 mm
zone of inhibition at 33 µg/mL ([16]; ATCC9637, 890A5 33 μg./ml., 0.015 ml. droplet): 24 mm
zone of inhibition at 33 µg/mL [17, 25]: 0 mm
zone of inhibition at 33 µg/mL ([18]; MB2875, 890A5 33 μg./ml., 0.015 ml. droplet): 27 mm
zone of inhibition at 33 µg/mL [19]: 35 mm
zone of inhibition at 33 µg/mL [20, 25]: 23 mm
zone of inhibition at 33 µg/mL ([21]; MB3126, 890A5 33 μg./ml., 0.015 ml. droplet): 20 mm
zone of inhibition at 33 µg/mL [22]: 15 mm
zone of inhibition at 33 µg/mL [23]: 36 mm
